Reference: patent publication US9931351B2, “Method for improving leptin resistance” (Kyoto University, priority 2013, dated 2018)

Columns and labels:
Assay type in all cases: in vivo
[1] = system: transgenic mice overexpressing leptin (LepTg) having diet-induced obesity; assay: Test Example 4: effects to improve metabolism in LepTg mice having diet-induced obesity caused by a high fat diet; settings: LepTg mice obese after four-week high fat diet, continued high fat diet, 50 mg/kg/day intraperitoneal once a day, further four weeks; for weight of the adipose tissues: epididymal
Protocol: (§1) Eight-week old male wild type mice and transgenic mice overexpressing leptin (LepTg) (see Test Example 1) were divided into two groups, respectively (n=4 and 12), and kept for four weeks under a standard diet (SD) or a high fat diet (HFD) condition. All the mice fed with the standard diet for the four weeks were assigned to the group “vehicle (V)” and fed with the standard diet for further four weeks, and then the body weight and the food intake of the mice were measured. The mice fed with the high fat diet for the four weeks were divided into three groups: “vehicle (V)”, “Compound 57”, and “Compound 32”, and fed with the high fat diet for further four weeks, and then the body weight and the food intake of the mice were measured. The vehicle, Compound 57, and Compound 32 were administered to the mice by intraperitoneal injection once a day. The each dosage of Compounds 57 and 32 was 50 mg/kg/day. Finally the mice were sacrificed and blood, epididymal adipose tissues, and the liver were collected. The weight of the adipose tissues, the liver weight, and the plasma levels of glucose and triglyceride were measured (n=4 for each group).

[2] = system: wild type mice under the high fat diet condition; assay: Test Example 1: effects to improve metabolism in wild type mice under a high fat diet condition; settings: 60% high fat diet, 50 mg/kg/day intraperitoneal once a day, four weeks; for weight of the adipose tissues: epididymal
Protocol: Eight-week old male wild type mice and transgenic mice overexpressing leptin (LepTg) (Ogawa et al. Diabetes 48: 1822-1829, 1999, prepared in Department of Endocrinology and Metabolism, Kyoto University) were divided into three treatment groups, respectively: “standard diet (SD)+vehicle (V)”, “60% high fat diet (HFD)+vehicle”, and “60% high fat diet+Compound 57”. The mice were kept for four weeks with ad libitum feeding, and the body weight and the food intake of the mice were measured. The vehicle and Compound 57 were administered to the mice by intraperitoneal injection once a day. The dosage of Compound 57 was 50 mg/kg/day. After the four weeks the mice were sacrificed and blood, epididymal adipose tissues, and the liver were collected. The weight of the adipose tissues, the liver weight, the liver triglyceride levels, and the plasma levels of glucose, insulin, total cholesterol (T-chol), triglyceride (TG), and nonesterified fatty acid (NEFA) were measured (n=5 for each group). The equivalent dosage of Compound 32 was tested in a similar manner (n=5 for each group).

[3] = system: wild type mice having diet-induced obesity; assay: Test Example 4: effects to improve metabolism in wild type mice having diet-induced obesity caused by a high fat diet; settings: wild type mice obese after four-week high fat diet, continued high fat diet, 50 mg/kg/day intraperitoneal once a day, further four weeks
Protocol: as §1

[4] = system: leptin-deficient ob/ob mice; assay: Test Example 2: effects to improve metabolism in leptin-deficient ob/ob mice; settings: standard diet, 50 mg/kg/day intraperitoneal once a day, four weeks; for weight of the adipose tissues: epididymal; for nonesterified fatty acid levels / total cholesterol levels / triglyceride levels: plasma
Protocol: Ob/ob mice cannot produce leptin due to a mutation in the leptin gene (Zhang et al. Nature 372: 425-432, 1994). Eight-week old male ob/ob mice, purchased from CHARLES RIVER LABORATORIES JAPAN, INC., were divided into two treatment groups: “Vehicle (V)” and “Compound 57”. The mice were kept for four weeks with ad libitum feeding of standard diet (SD), and the body weight and the food intake of the mice were measured. The vehicle and Compound 57 were administered to the mice by intraperitoneal injection once a day. The dosage of Compound 57 was 50 mg/kg/day. After the four weeks the mice were sacrificed and blood, epididymal adipose tissues, and the liver were collected. The weight of the adipose tissues, the liver weight, the liver triglyceride levels, and the plasma levels of glucose, insulin, total cholesterol (T-chol), triglyceride (TG) and nonesterified fatty acid (NEFA) were measured (n=5 for each group). The equivalent dosage of Compound 32 was tested in a similar manner (n=5 for each group).

SMILES | blood level of glucose [1] | blood level of triglyceride [1] | body weight [1] | food intake [1] | weight of the adipose tissues [1] | body weight [2] | food intake [2] | liver triglyceride levels [2] | liver weight [2] | plasma insulin levels [2] | plasma level of nonesterified fatty acid [2] | plasma level of total cholesterol [2] | plasma level of triglyceride [2] | random plasma glucose levels [2] | weight of the adipose tissues [2] | blood level of glucose [3] | blood level of triglyceride [3] | body weight [3] | body weight [4] | food intake [4] | other results
Cc1cc(F)ccc1-c1ccc(/N=N/c2cc(S(=O)(=O)[O-])c3ccccc3c2N)cn1.[Na+] [Compound 32, 4-amino-3-[6-(4-fluoro-2-methylphenyl)pyridine-3-ylazo]naphthalene-1-sulfonic acid sodium salt] | decreased | decreased | decreased | significantly decreased | significantly decreased | did not increase | did not increase | did not increase | did not increase | did not increase | did not increase | did not increase | did not increase | did not increase | did not increase | decreased | decreased | decreased | did not | did not change | liver triglyceride levels [4]: did not change; liver weight [4]: did not change; plasma insulin levels [4]: did not change; random plasma glucose levels [4]: did not change; weight of the adipose tissues [4]: did not change; nonesterified fatty acid levels [4]: did not change; total cholesterol levels [4]: did not change; triglyceride levels [4]: did not change
Nc1c(/N=N/c2ccc(-c3cccc4c3sc3ccccc34)nc2)cc(S(=O)(=O)[O-])c2ccccc12.[Na+] [Compound 57, 4-amino-3-(6-dibenzothiophene-4-ylpyridine-3-ylazo)naphthalene-1-sulfonic acid sodium salt] | decreased | decreased | decreased | significantly decreased | significantly decreased | did not increase | did not increase | did not increase | did not increase | did not increase | did not increase | did not increase | did not increase | did not increase | did not increase | decreased | decreased | decreased | decreased | did not change | liver weight [1]: decreased; food intake [3]: significantly decreased; liver triglyceride levels [4]: decreased; liver weight [4]: decreased; plasma insulin levels [4]: did not change; random plasma glucose levels [4]: did not change; weight of the adipose tissues [4]: decreased; nonesterified fatty acid levels [4]: decreased; total cholesterol levels [4]: decreased; triglyceride levels [4]: did not clearly change
